Measurements from patent US20100216827A1 (Metabolex, Inc., priority 2008, published 2010).
Read-outs that look alike come from different tables or passages of the source.

Target: T1, human GPR120 (Homo sapiens, UniProt Q5NUL3)
T1 construct: host or cells: HEK293 cells coexpressing Gqi5
T1 sequence (Q5NUL3 1-361): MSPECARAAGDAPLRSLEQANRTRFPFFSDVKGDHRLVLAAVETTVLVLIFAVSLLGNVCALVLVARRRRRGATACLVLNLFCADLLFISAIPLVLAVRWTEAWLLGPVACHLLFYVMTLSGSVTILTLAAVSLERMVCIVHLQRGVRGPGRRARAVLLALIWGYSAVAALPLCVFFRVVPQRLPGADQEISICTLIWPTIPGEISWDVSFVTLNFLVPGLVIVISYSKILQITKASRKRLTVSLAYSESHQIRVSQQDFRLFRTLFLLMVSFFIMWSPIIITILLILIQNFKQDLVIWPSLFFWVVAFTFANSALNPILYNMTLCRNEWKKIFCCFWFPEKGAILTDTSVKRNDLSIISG
Assay: Intracellular Ca2+ (FLIPR Calcium 4, Flexstation) assay in human GPR120 stable HEK293 cell line coexpressing Gqi5
Assay type: cell-based
Settings: for % Activity at 5 μM: 5 μM compound compared to the maximal activity of GW9508 at 6.7 μM (100%); for EC50: human GPR120 stably expressing cells, 8 concentrations 0.00001 to 20 μM
Description: Human GPR120 stable cell line was purchased from Multispan Inc (26219 Eden Landing Road, Hayward, Calif. 94545). This GPR120 cell line was generated in HEK293 cells coexpressing Gqi5. In this cell line, the Flag epitope tag (DYKDDDDK) was fused to the amino terminus of human GPR120 protein.
The concentration of intracellular Ca^2+ was measured as described below. Human GPR120 cells were plated in 96 well plates (Poly-D-Lysine coated black/clear Plate, Greiner Bio-One) at 70,000 cells per well and cultured overnight in conditions of 37° C. and 5% CO2. A Ca^2+ assay dye stock solution was prepared by adding 10 mL of assay buffer (HBSS/20 mM HEPES, pH 7.4) to FLIPR Calcium 4 Assay Bulk Kit (Molecular Devices). The 10 mL of Ca^2+ assay dye solution was prepared by further diluting 0.5 mL of Ca^2+ assay dye stock solution with 10 mL of assay buffer. The medium of the cells was removed and immediately 100 μl of the Ca^2+ assay dye solution was dispensed into each well followed by incubation at 37° C. and 5% CO2 for 50 minutes to incorporate the Ca^2+ dye into the cells. The cell plate was then placed in the Flexstation (Molecular Devices) for 20 minutes at 37° C. Compounds were dissolved in 100% DMSO and diluted to desired concentrations with assay buffer and placed in Flexstation simultaneously with the cell plate for 20 minute incubation at 37° C. prior to reading. Fluorescence intensity was measured immediately following compound addition (25 μl/well) on the Flexstation at an excitation wavelength of 485 nm and an emission wavelength of 525 with 515 nm auto cutoff. The resulting increase in fluorescence intensities corresponds to increases in intracellular Ca^2+ levels.
Compounds were dissolved in 100% DMSO to a concentration of 20 mM to provide stock solutions. To determine activity against human GPR120, compounds were added with human GPR120 stably expressing cells (described above), at 8 desired concentrations ranging from 0.00001 to 20 μM, in 96 well plates and fluorescence intensities were measured for 90 seconds with 2-second intervals. An EC50 value (concentration of the GPR120 agonist where 50% of the agonist's maximal activity is observed) was calculated using the changes (Max-Min) of fluorescent intensity.
To determine percent activity for a tested compound, the fluorescence intensity value obtained at a particular concentration were compared to the maximal fluorescence intensity value obtained for reference compound GW9508 (4-[[(3-phenoxyphenyl)methyl]amino]benzene propanoic acid; British Journal of Pharmacology 2006 148, 619-628) that acts as a full agonist of the GPR120 receptor. The maximal activity of GW9508 is designated as 100% activity. Typically, the GW9508 activity reached a maximum at a concentration of approximately 6.7 μM. Activities of compounds that were tested according to this method are shown in Table 1 below and are expressed as % activity at 5 μM compound compared to the maximal activity of GW9508 at 6.7 μM.

[1] = read-out: EC50 between >1 μM and ≦10 μM

| SMILES | % Activity at 5 μM | EC50 (read-out: EC50 ≦ 1 μM) | EC50 (read-out: EC50 > 10 μM) | EC50 [1] |
| --- | --- | --- | --- | --- |
| CC(Cc1cc(F)c(OCc2ccnn2-c2ccccc2)c(F)c1)C(=O)O (centres unmarked) [Example 91, 3-(3,5-difluoro-4-((1-phenyl-1H-pyrazol-5-yl)methoxy)phenyl)-2-methylpropanoic acid] | 64% | ≤ 1000 nM |  |  |
| CCc1ccc(-n2nc(C)cc2COc2c(F)cc(C[C@H](C)C(=O)O)cc2F)cc1 [Example 99, (S)-3-(4-((1-(4-ethylphenyl)-3-methyl-1H-pyrazol-5-yl)methoxy)-3,5-difluorophenyl)-2-methylpropanoic acid] | 73% | ≤ 1000 nM |  |  |
| CCc1ccc(-n2nc(C)cc2COc2ccc3c(c2)CCCC3CC(=O)O)cc1 (centres unmarked) [Example 123, 2-(6-((1-(4-ethylphenyl)-3-methyl-1H-pyrazol-5-yl)methoxy)-1,2,3,4-tetrahydronaphthalen-1-yl)acetic acid] | 67% |  | > 10000 nM |  |
| C/C(=C\C(=O)O)Cc1ccc(OCc2snnc2-c2ccc(Cl)cc2)cc1 [Example 69, (E)-4-(4-((4-(4-chlorophenyl)-1,2,3-thiadiazol-5-yl)methoxy)phenyl)-3-methylbut-2-enoic acid] | 87% |  |  | 1000 to 10000 nM |
| Cc1onc(-c2ccccc2)c1COc1ccc2c(c1)CCC2CC(=O)O (centres unmarked) [Example 58, 2-(5-((5-methyl-3-phenylisoxazol-4-yl)methoxy)-2,3-dihydro-1H-inden-1-yl)acetic acid] | 66% | ≤ 1000 nM |  |  |
| CC(Cc1cc(F)c(OCc2ccnn2-c2ccc(Cl)cc2)c(F)c1)C(=O)O (centres unmarked) [Example 93, 3-(4-((1-(4-chlorophenyl)-1H-pyrazol-5-yl)methoxy)-3,5-difluorophenyl)-2-methylpropanoic acid] | 108% | ≤ 1000 nM |  |  |
| Cc1cc(COc2c(F)cc(C3=C(C(=O)O)CCC3)cc2F)n(-c2ccc(Cl)cc2)n1 [Example 107, 2-(4-((1-(4-Chlorophenyl)-3-methyl-1H-pyrazol-5-yl)methoxy)-3,5-difluorophenyl)cyclopent-1-enecarboxylic acid] | 32% |  |  | 1000 to 10000 nM |
| O=C(O)CCc1cc(F)c(OCc2cc(C(F)(F)F)nn2-c2ccc(Cl)cc2)c(F)c1 [Example 56, 3-(4-((1-(4-chlorophenyl)-3-(trifluoromethyl)-1H-pyrazol-5-yl)methoxy)-3,5-difluorophenyl)propanoic acid] | 71% | ≤ 1000 nM |  |  |
| Cc1cc(COc2c(F)cc(CCC(=O)O)cc2F)n(-c2ccc(Cl)cc2)n1 [Example 50, 3-(4-((1-(4-chlorophenyl)-3-methyl-1H-pyrazol-5-yl)methoxy)-3,5-difluorophenyl)propanoic acid] | 85% | ≤ 1000 nM |  |  |
| Cc1cc(COc2ccc(C=C3CC(C(=O)O)C3)cc2)n(-c2ccc(Cl)cc2)n1 (centres unmarked) [Example 111, 3-(4-((1-(4-Chlorophenyl)-3-methyl-1H-pyrazol-5-yl)methoxy)benzylidene)cyclobutanecarboxylic acid] | 80% | ≤ 1000 nM |  |  |
| CCc1ccc(-n2nc(C)cc2COc2ccc(C(C)(C)CC(=O)O)cc2)cc1 [Example 126, 3-(4-((1-(4-ethylphenyl)-3-methyl-1H-pyrazol-5-yl)methoxy)phenyl)-3-methylbutanoic acid] | 48% |  |  | 1000 to 10000 nM |
| Cc1cc(COc2c(F)cc(CC(C)C(=O)O)cc2F)n(-c2ccc(C)c(C)c2)n1 (centres unmarked) [Example 87, 3-(4-((1-(3,4-dimethylphenyl)-3-methyl-1H-pyrazol-5-yl)methoxy)-3,5-difluorophenyl)-2-methylpropanoic acid] | 106% | ≤ 1000 nM |  |  |
| Cc1onc(-c2ccccc2)c1COc1c(F)cc(C2CC2C(=O)O)cc1F (centres unmarked) [Example 16, 2-(3,5-difluoro-4-((5-methyl-3-phenylisoxazol-4-yl)methoxy)phenyl)cyclopropanecarboxylic acid] | 60% | ≤ 1000 nM |  |  |
| Cc1cc(COc2c(F)cc(CC(C)C(=O)O)cc2F)n(-c2ccc(Br)cc2)n1 (centres unmarked) [Example 97, 3-(4-((1-(4-bromophenyl)-3-methyl-1H-pyrazol-5-yl)methoxy)-3,5-difluorophenyl)-2-methylpropanoic acid] | 109% | ≤ 1000 nM |  |  |
| CCc1ccc(-n2nc(C)cc2COc2c(F)cc(CC(C)C(=O)O)cc2F)cc1 (centres unmarked) [Example 83, 3-(4-((1-(4-ethylphenyl)-3-methyl-1H-pyrazol-5-yl)methoxy)-3,5-difluorophenyl)-2-methylpropanoic acid] | 88% | ≤ 1000 nM |  |  |
| CCc1ccc(-n2nccc2COc2c(F)cc(CC(C)C(=O)O)cc2F)cc1 (centres unmarked) [Example 100, 3-(4-((1-(4-ethylphenyl)-1H-pyrazol-5-yl)methoxy)-3,5-difluorophenyl)-2-methylpropanoic acid] | 109% | ≤ 1000 nM |  |  |
| Cc1cc(COc2c(F)cc(CCC(=O)O)cc2F)n(C(C)C)n1 [Example 25, 3-(3,5-difluoro-4-((1-isopropyl-3-methyl-1H-pyrazol-5-yl)methoxy)phenyl)propanoic acid] | 92% |  |  | 1000 to 10000 nM |
| O=C(O)CCc1cc(F)c(OCc2ccnn2-c2ccccc2)c(F)c1 [Example 48, 3-(3,5-difluoro-4-((1-phenyl-1H-pyrazol-5-yl)methoxy)phenyl)propanoic acid] | 73% | ≤ 1000 nM |  |  |
| Cc1cc(C)cc(-n2nc(C)cc2COc2c(F)cc(CC(C)C(=O)O)cc2F)c1 (centres unmarked) [Example 92, 3-(4-((1-(3,5-dimethylphenyl)-3-methyl-1H-pyrazol-5-yl)methoxy)-3,5-difluorophenyl)-2-methylpropanoic acid] | 58% | ≤ 1000 nM |  |  |
| O=C(O)CCc1cc(F)c(OCc2snnc2-c2ccc(Cl)cc2)c(F)c1 [Example 62, 3-(4-((4-(4-chlorophenyl)-1,2,3-thiadiazol-5-yl)methoxy)-3,5-difluorophenyl)propanoic acid] | 88% | ≤ 1000 nM |  |  |
| CCc1ccc(-n2nc(C)cc2COc2c(F)cc(CCCC(=O)O)cc2F)cc1 [Example 130, 4-(4-((1-(4-ethylphenyl)-3-methyl-1H-pyrazol-5-yl)methoxy)-3,5-difluorophenyl)butanoic acid] | 103% | ≤ 1000 nM |  |  |
| Cc1cc(COc2c(F)cc(CC(C)C(=O)O)cc2F)n(-c2ccc3c(c2)CCC3)n1 (centres unmarked) [Example 81, 3-(4-((1-(2,3-dihydro-1H-inden-5-yl)-3-methyl-1H-pyrazol-5-yl)methoxy)-3,5-difluorophenyl)-2-methylpropanoic acid] | 106% | ≤ 1000 nM |  |  |
| Cn1ncc(COc2c(F)cc(CCC(=O)O)cc2F)c1-c1ccccc1 [Example 13, 3-(3,5-difluoro-4-((1-methyl-5-phenyl-1H-pyrazol-4-yl)methoxy)phenyl)propanoic acid] | 73% |  |  | 1000 to 10000 nM |
| O=C(O)CCc1cc(F)c(OCc2sccc2-n2cccc2)c(F)c1 [Example 20, 3-(4-((3-(1H-pyrrol-1-yl)thiophen-2-yl)methoxy)-3,5-difluorophenyl)propanoic acid] | 88% | ≤ 1000 nM |  |  |
| C/C(=C\C(=O)O)CCc1ccc(OCc2snnc2-c2ccc(Cl)cc2)cc1 [Example 70, (E)-5-(4-((4-(4-chlorophenyl)-1,2,3-thiadiazol-5-yl)methoxy)phenyl)-3-methylpent-2-enoic acid] | 62% |  |  | 1000 to 10000 nM |
